According to publication PMC12808100, “The non-catalytic DNA polymerase ε subunit is an NPF motif recognition protein” (Nature Communications, 2025):
Residues, ends and D or L forms follow the SMILES beside them.

Key:
POLE = test: Titration nHU, Western blot, endogenous POLE in Jurkat extract; type: binding, human; conditions: source data of Fig 5, titration nHU, Jurkat extract; unit inferred
Source text: (§1) To identify the partners of NPF motifs, we used the native holdup (nHU) assay that was recently developed by our team (Fig. 1B). The holdup approach has been extensively used to determine equilibrium dissociation constants of transient interactions mediated by PDZ and SH3 domains, 14-3-3, and human papilloma virus E6 proteins, and even nucleic acid-protein interactions[7],[30]–[35]. In the nHU experiments, a purified bait molecule, or a control compound, is immobilized on a resin at high concentration (typically 10 μM, or higher) and these resin stocks are subsequently mixed with dilute cell extracts. After a relatively long incubation, i.e., 2 h at 4 °C, the liquid phase is separated by centrifugation. This liquid phase contains the unbound prey molecules at near binding equilibrium that can be quantified using selective and quantitative analytical approaches, such as mass spectrometry. Therefore, proteins that interact with the bait molecule will appear to be depleted in the solvent phase and by measuring its relative concentration compared to the control nHU experiment, the degree of binding (θ) can be determined that can be converted to apparent steady-state dissociation constants, according to:1 θ=1−Ifree/Itot=Cbait/Cbait+Kapp where Itot and Ifree are the measured total and bait-depleted equilibrium mass spectrometry total ion intensities of prey proteins, Cbait is the bait molecule concentration and Kapp is the apparent dissociation constant.
(§2) Jurkat E6.1 cells (ECACC #88042803, RRID: CVCL_0367) were grown in RPMI (Gibco) medium completed with 10% FBS (Gibco BRL) and 40 μg/ml gentamicin (Gibco/Life Technology). To prepare total cell extracts, Jurkat cells were seeded onto T-175 flasks and grew until 3 × 10^6 cells/ml confluency. Cells were collected by 1000 g x 5 min centrifugation, washed with PBS and then lysed in ice-cold lysis buffer (Hepes-KOH pH 7.5 50 mM, NaCl 150 mM, Triton X-100 1%, cOmplete EDTA-free protease inhibitor cocktail 5x, TCEP 5 mM, glycerol 10%).
(§3) Cell suspensions were sonicated 4×20 sec with 1 sec long pulse on ice, then incubated rotating at 4 °C for 30 min. The lysates were centrifuged at 12,000 rpm 4 °C for 20 min and supernatant was kept. Total protein concentration was measured by standard Bradford method (Bio-Rad Protein Assay Dye Reagent #5000006) using a BSA calibration curve (MP Biomedicals #160069, diluted in lysis buffer) on a Bio-Rad SmartSpec 3000 spectrophotometer instrument.
(§4) Titration holdup experiments were carried out as described above using 25 μl saturated resins prepared. Briefly, we mixed control, or bait-saturated resins at various proportions by keeping the total resin amount and resin-analyte ratio constant during the experiment (for 25 μl we used 100 μl cell extract as analyte). In titration experiments with protein baits, bait concentration was determined as described above for the saturated resin stocks. Experiments were carried out at 4 °C for 2 h and recovered supernatants were subjected to western blot or dot blot analysis.
(§5) For Western blot, samples were mixed with 4x Laemmli Sample Buffer in 3:1 ratio. Equal amounts of samples were loaded on 6-10% acrylamide-gels (generally 16 μg). Transfer was done into PVDF membranes using a Trans-Blot Turbo Transfer System and Trans-Blot Turbo RTA Transfer Kit (BioRad, #1704275). For Dot blot, nHU samples were directly loaded on Nitrocellulose membranes using 48 Sample vacuum manifold (Cleaver Scientific) following the manufacturer’s recommendations.
After 1 h of blocking in 5% milk, membranes were incubated overnight at 4 °C with primary antibodies in 5% milk-TBS-Tween.

EPS15 = target: T1, EPS15 (Homo sapiens, UniProt P42566); test: Titration nHU, Western blot, endogenous EPS15 in Jurkat extract; type: binding; conditions: source data of Fig 5, titration nHU, unit inferred
T1 construct: endogenous in cells; host or cells: Jurkat E6.1
T1 sequence (P42566 1-896): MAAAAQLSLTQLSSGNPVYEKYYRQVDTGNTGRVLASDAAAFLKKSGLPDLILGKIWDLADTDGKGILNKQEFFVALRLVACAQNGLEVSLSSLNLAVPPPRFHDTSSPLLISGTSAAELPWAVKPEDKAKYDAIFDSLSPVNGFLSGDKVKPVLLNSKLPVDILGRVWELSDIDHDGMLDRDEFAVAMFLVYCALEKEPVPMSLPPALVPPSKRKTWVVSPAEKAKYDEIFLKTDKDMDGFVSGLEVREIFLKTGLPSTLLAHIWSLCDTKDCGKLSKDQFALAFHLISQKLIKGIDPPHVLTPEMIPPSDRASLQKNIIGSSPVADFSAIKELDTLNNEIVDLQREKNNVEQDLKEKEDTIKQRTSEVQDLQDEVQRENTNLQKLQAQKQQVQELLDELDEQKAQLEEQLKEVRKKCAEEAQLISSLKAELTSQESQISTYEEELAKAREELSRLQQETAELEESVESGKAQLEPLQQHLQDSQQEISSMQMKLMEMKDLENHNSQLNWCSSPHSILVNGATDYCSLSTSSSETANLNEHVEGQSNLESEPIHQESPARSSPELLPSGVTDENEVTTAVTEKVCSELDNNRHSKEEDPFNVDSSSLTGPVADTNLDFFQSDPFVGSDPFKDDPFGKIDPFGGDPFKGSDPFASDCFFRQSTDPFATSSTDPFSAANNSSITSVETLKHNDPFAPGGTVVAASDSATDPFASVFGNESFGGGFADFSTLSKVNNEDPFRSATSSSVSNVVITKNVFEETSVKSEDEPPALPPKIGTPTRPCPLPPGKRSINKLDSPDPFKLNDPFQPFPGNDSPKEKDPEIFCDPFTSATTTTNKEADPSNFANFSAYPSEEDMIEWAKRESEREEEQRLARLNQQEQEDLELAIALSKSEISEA
Source text: as §1, §2, §3, §4
as §5, with “recommendations. […]” for “recommendations.”

| Compound | Kd (POLE) [µM] | Kd (EPS15) [µM] |
| --- | --- | --- |
| CC(C)C[C@H](NC(=O)[C@H](CCCNC(=N)N)NC(=O)[C@H](C)NC(=O)[C@H](Cc1ccccc1)NC(=O)[C@@H]1CCCN1C(=O)[C@H](CC(N)=O)NC(=O)[C@H](CCCNC(=N)N)NC(=O)[C@H](CCCNC(=N)N)NC(=O)[C@H](C)NC(=O)[C@H](C)NC(=O)[C@H](CC(=O)O)NC(=O)[C@H](CC(C)C)NC(=O)[C@H](CCCNC(=N)N)NC(=O)[C@H](C)NC(=O)[C@H](Cc1ccccc1)NC(=O)[C@@H]1CCCN1C(=O)[C@H](CC(N)=O)NC(=O)[C@H](CCCNC(=N)N)NC(=O)[C@H](CCCNC(=N)N)NC(=O)[C@H](C)NC(=O)[C@H](CC(=O)O)NC(=O)[C@H](CC(C)C)NC(=O)[C@H](CCCNC(=N)N)NC(=O)[C@H](C)NC(=O)[C@H](Cc1ccccc1)NC(=O)[C@@H]1CCCN1C(=O)[C@H](CC(N)=O)NC(=O)[C@H](CCCNC(=N)N)NC(=O)[C@H](CCCNC(=N)N)NC(=O)[C@H](C)NC(=O)[C@H](C)NC(=O)CCCCCNC(=O)CCCC[C@@H]1SC[C@@H]2NC(=O)N[C@@H]21)C(=O)N[C@@H](CC(=O)O)C(N)=O [3xDONSON] (HELM PEPTIDE1{[O=C1N[C@H]2[C@H](CS[C@H]2CCCCC(=O)[*:2])N1].[O=C(CCCCCN[*:1])[*:2]].A.A.R.R.N.P.F.A.R.L.D.A.R.R.N.P.F.A.R.L.D.A.A.R.R.N.P.F.A.R.L.D.[am]}$$$$V2.0) | 0.1 | 0.8 |
| C[C@H](NC(=O)[C@H](C)NC(=O)[C@@H]1CCCN1C(=O)CNC(=O)CCCCCNC(=O)CCCC[C@@H]1SC[C@@H]2NC(=O)N[C@@H]21)C(=O)N[C@@H](C)C(=O)N[C@@H](CCCNC(=N)N)C(=O)N[C@@H](CCCNC(=N)N)C(=O)N[C@@H](CC(N)=O)C(=O)N1CCC[C@H]1C(=O)N[C@@H](Cc1ccccc1)C(=O)N[C@@H](CO)C(=O)N[C@@H](CC(=O)O)C(=O)N[C@@H](CCCNC(=N)N)C(=O)N[C@@H](CC(=O)O)C(=O)N[C@@H](CC(N)=O)C(=O)N[C@@H](CCCNC(=N)N)C(=O)N1CCC[C@H]1C(=O)N[C@@H](CCCNC(=N)N)C(N)=O [DONSON_SYNJ1_C] (HELM PEPTIDE1{[O=C1N[C@H]2[C@H](CS[C@H]2CCCCC(=O)[*:2])N1].[O=C(CCCCCN[*:1])[*:2]].G.P.A.A.A.R.R.N.P.F.S.D.R.D.N.R.P.R.[am]}$$$$V2.0) | 8.5 | > 20 |
| C[C@H](NC(=O)[C@H](C)NC(=O)[C@@H]1CCCN1C(=O)CNC(=O)CCCCCNC(=O)CCCC[C@@H]1SC[C@@H]2NC(=O)N[C@@H]21)C(=O)N[C@H](C(=O)N[C@@H](CCCNC(=N)N)C(=O)N[C@H](C(=O)N[C@@H](CC(N)=O)C(=O)N1CCC[C@H]1C(=O)N[C@@H](Cc1ccccc1)C(=O)N[C@@H](CO)C(=O)N[C@@H](CC(=O)O)C(=O)N[C@@H](CCCNC(=N)N)C(=O)N[C@@H](CC(=O)O)C(=O)N[C@@H](CC(N)=O)C(=O)N[C@@H](CCCNC(=N)N)C(=O)N1CCC[C@H]1C(=O)N[C@@H](CCCNC(=N)N)C(N)=O)[C@@H](C)O)[C@@H](C)O [DONSON_SYNJ1_NC] (HELM PEPTIDE1{[O=C1N[C@H]2[C@H](CS[C@H]2CCCCC(=O)[*:2])N1].[O=C(CCCCCN[*:1])[*:2]].G.P.A.A.T.R.T.N.P.F.S.D.R.D.N.R.P.R.[am]}$$$$V2.0) | > 200 | > 200 |
| CC(C)C[C@H](NC(=O)[C@H](CCCNC(=N)N)NC(=O)[C@H](C)NC(=O)[C@H](Cc1ccccc1)NC(=O)[C@@H]1CCCN1C(=O)[C@H](CC(N)=O)NC(=O)[C@@H](NC(=O)[C@H](CCCNC(=N)N)NC(=O)[C@@H](NC(=O)[C@H](C)NC(=O)[C@H](C)NC(=O)[C@@H]1CCCN1C(=O)CNC(=O)CCCCCNC(=O)CCCC[C@@H]1SC[C@@H]2NC(=O)N[C@@H]21)[C@@H](C)O)[C@@H](C)O)C(=O)N[C@@H](CC(=O)O)C(=O)N[C@@H](CC(N)=O)C(=O)N[C@@H](CCCNC(=N)N)C(=O)N1CCC[C@H]1C(=O)N[C@@H](CCCNC(=N)N)C(N)=O [DONSON_SYNJ1_N] (HELM PEPTIDE1{[O=C1N[C@H]2[C@H](CS[C@H]2CCCCC(=O)[*:2])N1].[O=C(CCCCCN[*:1])[*:2]].G.P.A.A.T.R.T.N.P.F.A.R.L.D.N.R.P.R.[am]}$$$$V2.0) | 9.4 | > 30 |
